This is an account of results in PubChem BioAssay AID330 (DTP/NCI, 2004).

Each structure is given as a SMILES string. “And” between values parts separate entries of the source, which are not always exact repeats. Equal values may be shown once. Toxic doses and inconclusive results are not listed. Peptide text beside a SMILES is read from it. * marks the point of attachment. Cbz = O=C(OCc1ccccc1)*; OBn = c1ccc(CO*)cc1

The assay concerns P388 leukemia ip, CD2F1 mice, survival T/C. Put plainly: NCI In Vivo Anticancer Drug Screen. Data for tumor model P388 Leukemia (intraperitoneal) in CD2F1 (CDF1) mice. As to conditions: endpoint: median survival time, higher = longer survival. The method, boiled down:
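Mice carrying the transplanted tumor received test compound or vehicle. Survival was recorded in each group, and the value is the treated-group measurement divided by that of the vehicle-treated control group.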

Where [1] appears, read: dose: 50.0 mg/kg/injection, schedule: Q04DX003 (ip), vehicle: saline.
Where [2] appears, read: dose: 60.0 mg/kg/injection, schedule: Q01DX005 (ip), vehicle: saline with Tween-80.
Setting [3] is: dose: 120.0 mg/kg/injection, schedule: Q01DX005 (ip), vehicle: saline with Tween-80.
[4] abbreviates: dose: 240.0 mg/kg/injection, schedule: Q01DX005 (ip), vehicle: saline with Tween-80.
The mark [5] stands for this setting: dose: 50.0 mg/kg/injection, schedule: Q01DX009 (ip), vehicle: saline with Tween-80.
Where [6] appears, read: dose: 100.0 mg/kg/injection, schedule: Q01DX009 (ip), vehicle: saline with Tween-80.
Where [7] appears, read: dose: 50.0 mg/kg/injection, schedule: Q01DX005 (ip), vehicle: Klucel (hydroxypropylcellulose) (HPC).
Where [8] appears, read: dose: 100.0 mg/kg/injection, schedule: Q01DX005 (ip), vehicle: Klucel (hydroxypropylcellulose) (HPC).
Where [9] appears, read: dose: 200.0 mg/kg/injection, schedule: Q01DX005 (ip), vehicle: Klucel (hydroxypropylcellulose) (HPC).
[10] abbreviates: dose: 100.0 mg/kg/injection, schedule: Q01DX005 (ip), vehicle: saline with Tween-80.
Where [11] appears, read: dose: 200.0 mg/kg/injection, schedule: Q01DX005 (ip), vehicle: saline with Tween-80.
Setting [12] is: dose: 50.0 mg/kg/injection, schedule: Q01DX005 (ip), vehicle: saline with Tween-80.
The mark [13] stands for this setting: dose: 100.0 mg/kg/injection, schedule: Q04DX002 (ip), vehicle: saline with Tween-80.
Where [14] appears, read: dose: 200.0 mg/kg/injection, schedule: Q04DX002 (ip), vehicle: saline with Tween-80.
Where [15] appears, read: dose: 400.0 mg/kg/injection, schedule: Q04DX002 (ip), vehicle: saline with Tween-80.
Setting [16] is: dose: 200.0 mg/kg/injection, schedule: Q01DX009 (ip), vehicle: saline with Tween-80.

With `CC(=O)Nc1ccc(N=Nc2c(C)nn(C(=N)N)c2C)cc1`, the T/C was 100 % of control and 103 % of control (dose: 6.25 mg/kg/injection, schedule: Q01DX009 (ip), vehicle: saline); 108 % of control and 109 % of control and 93 % of control (dose: 12.5 mg/kg/injection, schedule: Q01DX009 (ip), vehicle: saline); 114 % of control (dose: 25.0 mg/kg/injection, schedule: Q01DX009 (ip), vehicle: saline); 123 % of control (dose: 50.0 mg/kg/injection, schedule: Q01DX009 (ip), vehicle: saline); 98 % of control under setting [1]; 110 % of control (dose: 100.0 mg/kg/injection, schedule: Q04DX003 (ip), vehicle: saline). Further, the T/C reads like this: (dose: 200.0 mg/kg/injection, schedule: Q04DX003 (ip), vehicle: saline) 122 % of control; (dose: 300.0 mg/kg/injection, schedule: Q04DX003 (ip), vehicle: saline) 121 % of control.
As for `COP1(=O)OC(C)=C(C)c2cccn21` (stereo not drawn), the T/C (dose: 25.0 mg/kg/injection, schedule: Q04DX003 (ip), vehicle: saline with Tween-80) was 103 % of control; the T/C (dose: 50.0 mg/kg/injection, schedule: Q04DX003 (ip), vehicle: saline with Tween-80) was 106 % of control; the T/C (dose: 100.0 mg/kg/injection, schedule: Q04DX003 (ip), vehicle: saline with Tween-80) was 99 % of control and 96 % of control.
As to `O=C(Cc1nc2cc(Cl)c(Cl)cc2nc1CC(=O)c1cccnc1)c1cccnc1`, the T/C reads like this: under setting [2], 110 % of control; under setting [3], 103 % of control; under setting [4], 100 % of control.
Consider `CC1C(=O)C(C)C(c2ccc([N+](=O)[O-])cc2)OC1c1ccccc1` (stereo not drawn), for which the T/C is, setting by setting: (dose: 50.0 mg/kg/injection, schedule: Q01DX001 (ip), vehicle: suspension in saline) 96 % of control; (dose: 100.0 mg/kg/injection, schedule: Q01DX001 (ip), vehicle: suspension in saline) 100 % of control; (dose: 200.0 mg/kg/injection, schedule: Q01DX001 (ip), vehicle: suspension in saline) 102 % of control.
As for `CCO/C=C1/N=C(c2ccccc2Cl)OC1=O`, the T/C by setting is: under setting [2], 106 % of control; under setting [3], 118 % of control; under setting [4], 98 % of control.
In the case of `CC(C)N(Cc1ccccc1)CC(O)c1ccc(Cl)cc1` (stereo not drawn), the T/C is 104 % of control (dose: 12.5 mg/kg/injection, schedule: Q01DX009 (ip), vehicle: saline with Tween-80); 108 % of control (dose: 25.0 mg/kg/injection, schedule: Q01DX009 (ip), vehicle: saline with Tween-80); 100 % of control and 108 % of control under setting [5]; 95 % of control under setting [6].
Consider `NNC(=O)CCC(=O)NN`, for which the T/C by setting is: (dose: 100.0 mg/kg/injection, schedule: Q04DX002 (ip), vehicle: saline) 101 % of control; (dose: 200.0 mg/kg/injection, schedule: Q04DX002 (ip), vehicle: saline) 96 % of control.
`CC(C)(C)CC(C)(C)C/C=C/CN1C(=O)c2ccccc2S1(=O)=O`: the T/C under setting [7] is 101 % of control, the T/C under setting [8] is 100 % of control and the T/C under setting [9] is 108 % of control.
Consider `CC1(C)CC(=O)c2c(oc3cc4c5c(oc4cc23)CC(C)(C)CC5=O)C1`, for which the T/C is 90 % of control (dose: 12.5 mg/kg/injection, schedule: Q01DX005 (ip), vehicle: saline with Tween-80); 91 % of control (dose: 25.0 mg/kg/injection, schedule: Q01DX005 (ip), vehicle: saline with Tween-80); 87 % of control under setting [10]; 92 % of control under setting [11].
For `COc1cccc2c1C(=O)c1c(O)c3c(c(O)c1C2=O)CC(O)(C(C)NCCN(C)C)CC3OC1CC(N)C(O)C(C)O1` (stereo not drawn), the T/C is 103 % of control (dose: 0.63 mg/kg/injection, schedule: Q01DX009 (ip), vehicle: water); 106 % of control (dose: 1.25 mg/kg/injection, schedule: Q01DX009 (ip), vehicle: water); 121 % of control (dose: 2.5 mg/kg/injection, schedule: Q01DX009 (ip), vehicle: other); 153 % of control (dose: 20.0 mg/kg/injection, schedule: Q01DX009 (ip), vehicle: other); 157 % of control (dose: 40.0 mg/kg/injection, schedule: Q01DX009 (ip), vehicle: other).
For `C/C(N=NC(=S)N1CC(C)OC(C)C1)=C1\C=CC=CN1O` (stereo not drawn), the T/C was 111 % of control under setting [12], 104 % of control under setting [10] and 106 % of control under setting [11].
For `O=C1CS(=O)(=O)C(c2cccc(Cl)c2)N1N1C(=O)CS(=O)(=O)C1c1cccc(Cl)c1` (stereo not drawn), in that order: 92 % of control, 100 % of control and 92 % of control.
For `NCCCCC(NC(=O)OCc1ccccc1)C(=O)NC(CCCCN)C(=O)NC(CCCCN)C(=O)NC(Cc1c[nH]c2ccccc12)C(=O)OCc1ccccc1` (stereo not drawn) (Cbz-KKKW-OBn; configuration not given here), the T/C is, setting by setting: under setting [7], 100 % of control; under setting [8], 96 % of control; under setting [9], 100 % of control.
`Cc1ccc2oc3c(ccc(=O)n3C)c(=O)c2c1`: the T/C by setting is: under setting [13], 101 % of control; under setting [14], 100 % of control; under setting [15], 98 % of control.
Take `COCCOC(=O)c1c(Cl)c(Cl)c(Cl)c(Cl)c1C(=O)O`: the T/C under setting [5] is 96 % of control, the T/C under setting [6] is 96 % of control and the T/C under setting [16] is 101 % of control.
As to `Cc1cc(Cl)ccc1S(=O)(=O)Cl`, the T/C is, setting by setting: under setting [5], 104 % of control; under setting [6], 103 % of control.
On to `CC1CC(Cc2ccccc2)C(=O)CC(C)(C)CC(=O)O1` (stereo not drawn), for which the T/C under setting [1] was 100 % of control and 103 % of control and 106 % of control.
Turning to `CC(=O)OC1Cc2c(cc3c4c(cccc24)N(C(C)=O)C3)N(C)C1` (stereo not drawn), the T/C by setting is: under setting [13], 105 % of control; under setting [14], 108 % of control; under setting [15], 100 % of control.
Consider `O=C(Nc1cccc2ccccc12)NN1C(=O)CSC1=S`, for which the T/C under setting [5] was 90 % of control, the T/C under setting [6] is 93 % of control and the T/C under setting [16] is 91 % of control.
As to `CC(C)c1[nH]c2ccccc2c1Cn1ccnc1`, the T/C runs as follows: under setting [7], 100 % of control; under setting [8], 114 % of control.
Consider `COc1ccc(C(=O)C(C)Br)c(OCc2ccccc2)c1OC` (stereo not drawn), for which the T/C is 107 % of control under setting [5]; 105 % of control and 109 % of control under setting [6]; 114 % of control and 118 % of control under setting [16]; 110 % of control and 122 % of control (dose: 400.0 mg/kg/injection, schedule: Q01DX009 (ip), vehicle: saline with Tween-80).
